Experimental data taken from ChEMBL document CHEMBL1152690, “The spirocyclopropyl moiety as a methyl surrogate in the structure of l-fucosidase and l-rhamnosidase inhibitors” (Bioorg Med Chem, 2009).
Calls of active or inactive are those of the source. The calls are words filed in the database; no cut-off is given here.

Tests used:
[1] = molecular target: T1, Tissue alpha-L-fucosidase (Bos taurus, UniProt Q2KIM0); test: Inhibition of bovine kidney alpha-L-fucosidase by para-nitrophenolate release assay
T1 sequence (Q2KIM0 whole entry): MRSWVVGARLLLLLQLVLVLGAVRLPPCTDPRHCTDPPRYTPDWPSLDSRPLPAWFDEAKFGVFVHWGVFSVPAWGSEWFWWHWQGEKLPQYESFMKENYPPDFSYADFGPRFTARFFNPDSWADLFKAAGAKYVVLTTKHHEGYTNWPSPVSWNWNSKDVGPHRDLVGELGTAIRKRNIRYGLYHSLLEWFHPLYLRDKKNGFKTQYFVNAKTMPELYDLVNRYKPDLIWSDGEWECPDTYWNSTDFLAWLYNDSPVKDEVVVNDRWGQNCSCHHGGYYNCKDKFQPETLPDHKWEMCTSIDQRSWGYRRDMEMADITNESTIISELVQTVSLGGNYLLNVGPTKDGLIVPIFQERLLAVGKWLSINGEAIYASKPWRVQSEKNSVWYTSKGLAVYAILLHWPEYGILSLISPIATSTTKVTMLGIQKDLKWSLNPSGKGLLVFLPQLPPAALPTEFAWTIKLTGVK

[2] = Inhibition of Penicillium decumbens Alpha-L-rhamnosidase by para-nitrophenolate release assay
[3] = molecular target: T2, Tissue alpha-L-fucosidase (Bos taurus) (UniProt Q2KIM0); test: Inhibition of bovine kidney alpha-L-fucosidase at 1 mM by para-nitrophenolate release assay
T2 sequence (whole entry): T1 sequence (Q2KIM0 whole entry)

Aspergillus niger [4] = test: Inhibition of Aspergillus niger beta-xylosidase at 1 mM
Penicillium decumbens [5] = test: Inhibition of Penicillium decumbens Alpha-L-rhamnosidase at 1 mM by para-nitrophenolate release assay
Aspergillus niger [6] = test: Inhibition of Aspergillus niger amyloglucosidase at 1 mM
[7] = molecular target: T3, Beta-galactosidase (Aspergillus oryzae) (UniProt Q2U7N3); test: Inhibition of Aspergillus oryzae beta-galactosidase at 1 mM
T3 sequence (whole entry): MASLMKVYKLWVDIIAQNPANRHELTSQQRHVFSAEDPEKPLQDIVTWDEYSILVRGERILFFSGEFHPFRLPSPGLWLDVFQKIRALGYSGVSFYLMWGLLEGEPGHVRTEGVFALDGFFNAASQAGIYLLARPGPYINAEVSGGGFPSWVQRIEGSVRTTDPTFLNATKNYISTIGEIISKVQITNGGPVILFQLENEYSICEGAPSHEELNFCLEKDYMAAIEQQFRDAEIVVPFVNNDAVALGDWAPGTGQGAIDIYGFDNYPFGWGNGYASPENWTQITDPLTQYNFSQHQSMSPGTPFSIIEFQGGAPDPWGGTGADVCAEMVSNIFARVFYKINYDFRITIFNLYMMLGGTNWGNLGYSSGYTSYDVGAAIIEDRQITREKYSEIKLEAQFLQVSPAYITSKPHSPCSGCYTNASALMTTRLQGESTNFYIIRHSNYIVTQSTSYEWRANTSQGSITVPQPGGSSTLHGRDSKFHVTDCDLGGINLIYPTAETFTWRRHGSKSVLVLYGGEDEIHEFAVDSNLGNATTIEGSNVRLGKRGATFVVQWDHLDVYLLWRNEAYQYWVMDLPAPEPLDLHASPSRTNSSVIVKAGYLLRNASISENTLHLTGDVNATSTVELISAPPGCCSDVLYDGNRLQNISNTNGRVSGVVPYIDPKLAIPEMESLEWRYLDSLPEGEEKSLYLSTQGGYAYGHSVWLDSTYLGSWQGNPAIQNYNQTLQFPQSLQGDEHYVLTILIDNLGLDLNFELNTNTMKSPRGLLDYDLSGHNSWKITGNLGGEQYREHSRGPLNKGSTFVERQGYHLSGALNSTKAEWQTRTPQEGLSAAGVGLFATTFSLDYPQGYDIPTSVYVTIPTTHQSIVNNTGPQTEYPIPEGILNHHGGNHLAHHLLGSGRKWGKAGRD

Prunus dulcis = test: Inhibition of almond beta-glucosidase at 1 mM
Canavalia ensiformis [8] = test: Inhibition of jack bean beta-N-acetylglucosaminidase at 1 mM
[9] = molecular target: Beta-galactosidase (Escherichia coli) (UniProt Q8VNN2); test: Inhibition of Escherichia coli beta-galactosidase at 1 mM
Chain of Beta-galactosidase (Escherichia coli) (Q8VNN2 whole entry, looked up): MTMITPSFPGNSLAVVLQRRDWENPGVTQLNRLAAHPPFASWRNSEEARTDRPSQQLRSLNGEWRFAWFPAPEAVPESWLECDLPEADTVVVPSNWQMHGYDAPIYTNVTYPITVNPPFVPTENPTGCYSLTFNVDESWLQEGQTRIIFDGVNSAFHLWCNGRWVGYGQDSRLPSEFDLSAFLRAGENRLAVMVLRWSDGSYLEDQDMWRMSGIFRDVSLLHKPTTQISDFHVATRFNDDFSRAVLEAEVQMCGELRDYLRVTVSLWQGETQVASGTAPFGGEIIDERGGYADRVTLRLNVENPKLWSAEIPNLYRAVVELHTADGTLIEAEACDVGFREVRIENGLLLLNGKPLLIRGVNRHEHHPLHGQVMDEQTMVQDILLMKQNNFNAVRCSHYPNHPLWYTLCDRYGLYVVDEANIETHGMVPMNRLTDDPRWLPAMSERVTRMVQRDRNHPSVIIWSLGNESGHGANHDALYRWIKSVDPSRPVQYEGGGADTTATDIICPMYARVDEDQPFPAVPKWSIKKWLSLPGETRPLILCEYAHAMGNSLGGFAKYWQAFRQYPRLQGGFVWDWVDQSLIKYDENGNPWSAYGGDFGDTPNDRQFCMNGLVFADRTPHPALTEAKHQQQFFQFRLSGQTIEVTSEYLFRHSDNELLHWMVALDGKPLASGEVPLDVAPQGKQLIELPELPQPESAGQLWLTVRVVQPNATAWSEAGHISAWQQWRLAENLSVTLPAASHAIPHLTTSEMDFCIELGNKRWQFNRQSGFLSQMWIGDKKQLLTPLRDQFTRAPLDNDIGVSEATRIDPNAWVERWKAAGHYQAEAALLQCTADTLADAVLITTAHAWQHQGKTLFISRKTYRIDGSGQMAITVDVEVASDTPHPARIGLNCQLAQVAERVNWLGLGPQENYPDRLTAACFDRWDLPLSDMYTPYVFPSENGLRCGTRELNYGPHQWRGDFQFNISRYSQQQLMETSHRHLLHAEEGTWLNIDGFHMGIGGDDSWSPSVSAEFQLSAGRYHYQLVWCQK

Coffea arabica = test: Inhibition of coffee bean alpha-galactosidase at 1 mM
Bos taurus = organism: Bos taurus; test: Inhibition of bovine kidney beta-N-acetylglucosaminidase at 1 mM
Oryza sativa = test: Inhibition of rice alpha-glucosidase at 1 mM
Saccharomyces cerevisiae = test: Inhibition of yeast alpha-glucosidase at 1 mM
Canavalia ensiformis [10] = test: Inhibition of jack bean alpha-mannosidase at 1 mM
Helix pomatia = test: Inhibition of snail beta-mannosidase at 1 mM
Penicillium decumbens [11] = test: Inhibition of Penicillium decumbens lysosomal Alpha-L-rhamnosidase at 1 mM by para-nitrophenolate release assay
[12] = molecular target: T2, Tissue alpha-L-fucosidase (Bos taurus); conditions: 1 mM
Description: Inhibition of bovine lysosomal alpha-L-fucosidase at 1 mM by para-nitrophenolate release assay

SMILES	Ki [1] [nM]	Ki [2] [nM]	inhibition [3]	inhibition (Aspergillus niger [4])	inhibition (Penicillium decumbens [5])	inhibition (Aspergillus niger [6])	inhibition [7]	inhibition (Prunus dulcis)	inhibition (Canavalia ensiformis [8])	inhibition [9]	inhibition (Coffea arabica)	inhibition (Bos taurus)	inhibition (Oryza sativa)	inhibition (Saccharomyces cerevisiae)	inhibition (Canavalia ensiformis [10])	inhibition (Helix pomatia)	also measured
C[C@H]1NC[C@H](O)[C@H](O)[C@H]1O	1000	1000	99%														
COc1ccc(C[C@@H]2NC[C@H](O)[C@H]2O)cc1		3000															
C[C@@H]1N=C[C@H](O)[C@H]1O		140															
C[C@@H]1NC[C@H](O)[C@H](O)[C@H]1O					0%												inhibition (Penicillium decumbens [11]): inactive; inhibition [12]: inactive
COc1ccc(C[C@@H]2NC[C@@H](O)[C@H]2O)cc1		3200															
C[C@@H]1N[C@@H](O)[C@@H](O)[C@H](O)[C@@H]1O	1																
C[C@@H]1C[C@H](O)C2[C@@H](O)[C@@H](O)CN2C1 (single isomer, unassigned)		30															
C[C@@H]1NC[C@H](O)[C@H]1O		5500															

Second part, led by results:

Ki [1] [nM]	Ki [2] [nM]	inhibition [3]	inhibition (Aspergillus niger [4])	inhibition (Penicillium decumbens [5])	inhibition (Aspergillus niger [6])	inhibition [7]	inhibition (Prunus dulcis)	inhibition (Canavalia ensiformis [8])	inhibition [9]	inhibition (Coffea arabica)	inhibition (Bos taurus)	inhibition (Oryza sativa)	inhibition (Saccharomyces cerevisiae)	inhibition (Canavalia ensiformis [10])	inhibition (Helix pomatia)	SMILES	also measured
		19%	inactive	72%	inactive	inactive	inactive	inactive	inactive	inactive	inactive	inactive	inactive	inactive	inactive	O[C@@H]1[C@@H](O)C=NC12CC2	
	57000	76%	inactive	87%	inactive	inactive	inactive	inactive	inactive	inactive	inactive	inactive	inactive	inactive	inactive	O[C@H]1C=NC2(CC2)[C@H]1O	
		inactive	inactive	72%	inactive	inactive	inactive	inactive	inactive	inactive	inactive	inactive	inactive	inactive	inactive	O[C@@H]1[C@@H](O)C2(CC2)NC[C@@H]1O	
10																C[C@@H]1N=C[C@H](O)[C@@H]1O	
18000		83%	inactive	inactive	inactive	inactive	inactive	inactive	inactive	inactive	inactive	inactive	inactive	inactive	inactive	O[C@H]1[C@H](O)CNC2(CC2)[C@H]1O	
